Reference: patent US20220339135A1, “COMPOSITIONS AND METHODS FOR MODULATING AN INFLAMMATORY RESPONSE” (Enzychem Lifesciences Corporation, priority 2019, published 2022)

Experiments:
[1] = system: Pseudomonas aeruginosa strain K (PAK) in BALF; assay: PAK clearance in AC regimen-induced immunocompromised mice; type: in vivo; conditions: PLAG 250 mg/kg oral once daily 5 days, BALF 3 and 6 hours after infection
Description: To establish a chemotherapy-induced immunocompromised mice model, the mice were administered a single intravenous injection of 50 mg/kg cyclophosphamide and 2.5 mg/kg doxorubicin (AC regimen). After 5 days from the injection of AC regimen, blood samples were collected from an intra-orbital vein using EDTA capillary tubes, and the number of circulating neutrophils was measured by complete blood cell count (CBC) analysis using Mindray BC-5300 auto-hematology analyzer (Shenzhen Mindray Bio-medical Electronics, China). Pseudomonas aeruginosa strain K (PAK) was grown overnight in LB broth at 37° C. with agitation and then harvested by centrifugation at 13,000×g for 2 minutes. […] The diluted bacteria were administrated to the mice by intranasal injection. Bronchoalveolar lavage fluid (BALF) samples were collected from the PAK-infected mice at different time points after infection in normal mice model and in AC regimen-induced immunocompromised mice model. […] The number of viable bacteria in BALF was determined by counting the number of colonies formed in the plates. […] The BALF samples were harvested at 3 and 6 hours after the infection, and live PAK in BALF after AC regimen and AC regimen/PLAG treatment was determined by counting with colony-forming units (FIG. 6B).

[2] = system: Rac1, p47phox in BMDMs and THP-1 cells; assay: Rac1 membrane translocation and p47phox phosphorylation; type: cell-based
Description: Total cells were lysed on ice for 30 minutes in RIPA buffer composed of 50 mM Tris-HCl (pH 7.4), 150 mM NaCl, 2 mM EDTA, 1% NP-40, 0.5% sodium deoxycholate, 0.1% SDS, 1 mM phenylmethylsulfonyl fluoride (PMSF), 10 mM sodium fluoride, 2 mM sodium pyrophosphate, 10 mM β-glycerophosphate, 10 mM sodium orthovanadate. Membrane-and-cytoplasmic protein fractions of cultured cells were obtained with Mem-PER Plus Membrane Protein Extraction Kit (Thermo Scientific, MA, USA) according to the manufacturer's instructions. The lysates were centrifuged at 13,000 rpm for 20 minutes at 4° C. and protein concentrations were determined using the Bradford assay (Bio-Rad Laboratories). Denatured samples were mixed with a 5×SDS-PAGE loading buffer and heated to 100° C. for 15 min. The samples were separated on the 10% of SDS-PAGE gel and transferred to polyvinylidene difluoride (PVDF) membranes (Merck Millipore Corporation, MA, USA). Membranes were blocked with 5% non-fat milk in PBS (10 mM Tris-HCl, pH7.5, 150 mM NaCl) for 1 h and probed with primary antibodies against ERK1/2, phospho-ERK1/2, P38, phospho-P38, SAPK/JNK, phospho-SAPK/JNK, Na, K-ATPase, α-Tubulin, and β-actin from Cell Signaling Technology (MA, USA), Rac1 from Merck Millipore Corporation), p47phox and phospho-p47phox from Invitrogen, adenosine receptor A1 from Abcam, β arrestin-1 from Santa Cruz Technology for overnight at 4° C. […]

[3] = system: chemotherapy-induced neutropenia; assay: Chemotherapy-induced neutropenia in pancreatic cancer patients; type: in vivo, human
Description: From January 2014 to September 2014, 16 patients with histologically or cytologically confirmed unresectable pancreatic cancer were enrolled in this study. […] Historical controls were also recruited from Asan Medical Center from March 2012 to December 2013. The eligibility criteria for the control group were the same as those for cases who intake PLAG during gemcitabine-based chemotherapy. The control group (n=32) was matched to the PLAG group (n=16) based on age, performance status, chemotherapy cycle, comorbidity, and disease extent. This study was approved by a hospital institutional review board.
All patients received gemcitabine 1,000 mg/m^2 on days 1, 8, and 15 of each 4-week schedule and daily erlotinib at 100 mg orally. In the PLAG group, PLAG 500 mg was orally administered twice daily from the start of the chemotherapy to the completion. Hematology and serum chemistry analyses were performed at screening baseline, then weekly until the end of the study. Febrile neutropenia (FN) was defined as an ANC of less than 1,000/mm^3 and an oral temperature of more than 38° C. on the same day or the following day after chemotherapy. If on the day of chemotherapy administration, a patient's ANC was reduced to 500-1,000/mm^3 or if the absolute platelet count was reduced to 50,000-100,000/mm^3, the gemcitabine dose was reduced by 75%. Gemcitabine was omitted for 1 week if the neutrophil count was lower than 500/mm^3, or the absolute platelet count was lower than 50,000/mm^3. […] Erlotinib dose was interrupted in patients within tolerable rash and was reduced or discontinued if symptoms persisted for 10-14 days. Erlotinib dose was reduced for grade 2 diarrhea persisting for 48-72 h and for grade 3 diarrhea following resolution to grade 1; erlotinib was permanently discontinued for grade 4 diarrhea. Treatment continued until disease progression unacceptable toxicity, withdrawal of patient's consent or physician's decision. Safety was evaluated throughout the entire study. Toxicity was graded based on the NCI Common Terminology Criteria for Adverse Events (CTCAE) version 3.0.
The primary endpoint was neutropenia, and the secondary endpoint was a safety profile. All analyses were performed using SPSS version 17.0 (SPSS Inc., Chicago, Ill., USA). Descriptive statistics were used to evaluate demographics, and safety data continuous variables were compared using the Mann-Whitney U test, paired t-test, and independent T-test. A P value of <0.05 was considered statistically significant.

[4] = system: gemcitabine-induced neutropenia; conditions: cited from earlier work

CCCCC/C=C\C/C=C\CCCCCCCC(=O)OC(COC(C)=O)COC(=O)CCCCCCCCCCCCCCC (racemic) [PLAG, 1-palmitoyl-2-linoleoyl-3-acetylglycerol]
bacterial clearance (live PAK CFU in BALF) [1]: significantly accelerates | gemcitabine-induced p47phox phosphorylation ([2]; dose-dependent): effectively inhibited | translocation of Rac1 from the cytosol to the membrane ([2]; gemcitabine-stimulated THP-1 cells): significantly inhibited | incidence of neutropenia (ANC<1,500/mm^3, grade 2-4) ([3]; PLAG 500 mg orally twice daily with gemcitabine + erlotinib, n=16): 37.5% | ANC nadir (relative to baseline) ([3]; PLAG group): about 0.75 | febrile neutropenia (FN) ([3]; PLAG group): did not occur | severe neutropenia (ANC<500/mm^3, grade 4) ([3]; PLAG group vs control group): developed only in the control group | adverse events related to PLAG during chemotherapy ([3]; including nausea/vomiting, bone pain, fatigue, liver dysfunction): no adverse events related to PLAG | decrease of ANCs from the baseline level ([3]; vs control group, P<0.05): decreased significantly less | gemcitabine-induced neutropenia ([4]; Jeong et al., 2019): attenu¬ated the neutropenia | anti-cancer effect of gemcitabine ([4]; athymic nude mice implanted with a human myeloma cell line): did not interfere
